Patent publication US20210322508A1, “PEPTIDES AND COMPOSITIONS FOR TARGETED TREATMENT AND IMAGING” (SIGNABLOK, INC., priority 2018, published 2021)
Non-standard residues stand in square brackets, D forms with d. Residues, ends and D or L forms follow the SMILES beside them. No end group written: not given here. Met(O) = CS(=O)CC[C@H](N)C(=O)O; PTX = not defined here

How the values were obtained:
TGCT patients = details: cited from earlier work
[1] = test system: DBA/1 mice with collagen-induced arthritis; assay: Collagen-induced arthritis (CIA) model; details: 5 mg/kg i.p. daily 14 days, free peptides
Protocol: Animal studies were performed by Bolder BioPATH (Boulder, Colo., USA). CIA was induced in male 6- to 7-week-old DBA/1 mice by immunization with bovine type II collagen. Briefly, mice were injected intradermally with 100 μl of Freund's complete adjuvant containing 250 μg of bovine type II collagen (2 mg/ml final concentration) at the base of the tail on day 0 and again on day 21. On day 24, mice were randomized by body weight into treatment groups. […] Mice were weighed on study days 24, 26, 28, 30, 32, 34, 36 and 38 (prior to necropsy). Daily clinical scores were given on a scale of 0-5 for each of the paws on days 24-38. On day 38, mice were killed for necropsy.
At the end of study, fore paws, hind paws and knees were harvested, fixed in 10% neutral buffered formalin for 1-2 days, and then decalcified in 5% formic acid for 4-5 days before standard processing for paraffin embedding. Sections (8 μm) were cut and stained with toluidine blue (T blue). Hind paws, fore paws and knees were embedded and sectioned in the frontal plane. Six joints from each animal were processed for histopathological evaluation. The joints were then assessed using 0-5 scale for inflammation, pannus formation, cartilage damage, bone resorption and periosteal new bone formation. A summed histopathology score (sum of five parameters, 0-25 scale) was also determined.
Animal studies were performed by Bolder BioPATH (Boulder, Colo., USA). CIA was induced in male 6- to 7-week-old DBA/1 mice by immunization with bovine type II collagen. Briefly, mice were injected intradermally with 100 μl of Freund's complete adjuvant containing 250 μg of bovine type II collagen (2 mg/ml final concentration) at the base of the tail on day 0 and again on day 21. On day 24, mice were randomized by body weight into treatment groups. […] Starting day 24, mice were injected i.p. intraperitoneally daily for 14 consecutive days with 5 mg/kg G-KV21, G-HV21, G-TE21, M-TK32 and M-VE32 or with PBS (vehicle). Mice were weighed on study days 24, 26, 28, 30, 32, 34, 36 and 38 (prior to necropsy). Daily clinical scores were given on a scale of 0-5 for each of the paws on days 24-38. On day 38, mice were killed for necropsy.

[2] = test system: mice with collagen-induced arthritis (CIA); assay: collagen-induced arthritis (CIA) in mice; details: CIA mice
Text: As described herein, starting on day 24 after immunization, mice with CIA were intraperitoneally (i.p.) administered daily for 14 consecutive days with vehicle (black diamonds), dexamethasone (black squares), GF9 (white circles), GF9-LPC (black circles) and GA/E31-LPC (half black half white circles) at indicated doses. Daily clinical scores were given on a scale of 0-5 for each of the paws on days 24-38. On day 38, mice were killed and the histopathological examination of mouse joints was performed. Histopathological scores of inflammation (I), pannus (P), cartilage damage (CD), bone resorption (BR) and periosteal new bone formation (PBF) are shown. Summed histopathology scores were calculated as the sum of all five histopathological parameters. All results are expressed as the mean±SEM (n=10 mice per group).
Mouse body weight (BW) was measured every other day from day 24 to day 38. Mean BW changes were calculated as a percentage of the difference between beginning (day 24) and final (day 38) BWs of the CIA mice intraperitoneally (i.p.) treated daily for 14 consecutive days with vehicle, dexamethasone, GF9, GF9-LPC and GA/E31-LPC at indicated doses. All results are expressed as the mean±SEM (n=10 mice per group).
Plasma was collected on days 24, 30 and 38 from arthritic mice treated with vehicle (black diamonds), GF9 (white circles), GF9-LPC (black circles) and GA/E31-LPC (half black half white circles). Plasma samples were analyzed for concentrations of interleukin-1b (IL-1b), IL-6, and colony-stimulating factor 1 (CSF1). Results are expressed as the mean±SEM (n=5 mice per group).

[3] = test system: Hepa 1-6 syngeneic hepatocellular carcinoma; details: orthotopic Hepa 1-6, Wu et al. 2019, cited from earlier work
PVNS patients = details: cited from earlier work
human cancer xenografts = assay: PTX-TREM-1/TRIOPEP tumor suppression in human cancer xenografts; type: in vivo; details: free and SLP-bound form
Text: Tumor suppression studies using PTX-TREM-1/TRIOPEP formulations in free or SLP-bound form can be performed in animal models of cancer similarly as described herein (see e.g., the examples 7 and 8). Female 6-8 week old NU/J mice can be obtained from the Jackson Laboratory (Bar Harbor, Me.) Human cancer cell lines including but not limited to human carcinoma, human pancreas or human breast cancer cell lines can be obtained from ATCC. […] Human cancer xenografts are established by injecting subcutaneously into the right flanks certain amounts of viable cells per mouse. […] When tumor grows to approximately 125 mm^3 (100-150 mm^3), animals are pair-matched by tumor size into treatment and control groups. Either PTX (TAXOL®; 30 mg/kg PTX) or PTX-TREM-1/TRIOPEP formulations in free (60 mg/kg PTX) or SLP-bound (30 mg/kg PTX) are intravenously administered to the animals via tail vein. Clinical observations, body weights and tumor volume measurements are made twice a week once tumors become measureable. It should be noted that TAXOL® is formulated with a detergent Cremophor that in itself is cytotoxic and is also the source of numerous side effects during chemotherapy. The Cremophor content of TAXOL® is about 80× that of paclitaxel per ml.

[4] = target: T1, TREM-1 (triggering receptor expressed on myeloid cells-1) on murine J774A.1 macrophages (mouse, UniProt Q9JKE2 21-230); assay: confocal immunofluorescence on macrophages; colocalisation only, no direct binding assay
T1 construct: whole, on cells; the cells are murine
T1 sequence (looked up): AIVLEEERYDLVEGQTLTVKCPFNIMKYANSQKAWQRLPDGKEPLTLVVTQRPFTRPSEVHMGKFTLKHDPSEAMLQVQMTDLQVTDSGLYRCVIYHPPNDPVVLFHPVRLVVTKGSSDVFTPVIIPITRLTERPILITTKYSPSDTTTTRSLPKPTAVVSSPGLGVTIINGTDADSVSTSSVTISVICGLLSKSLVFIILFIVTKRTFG
Protocol: (§1) Immunofluorescence analysis of TREM-1 and TREM-1/TRIOPEP in the cell membrane was performed using the standard, well-known in the art methods as described in Shen and Sigalov J Cell Mol Med 2017, 21:2524-2534, and Rojas et al. 2018, herein incorporate by reference.
(§2) BALB/c murine macrophage J774A.1 cells were grown at 37° C. in six-well tissue culture plates containing glass coverslips. After reaching target confluency of approximately 50%, cells were incubated for 6 h at 37° C. with Dylight 488-labeled GF9 or TREM-1/TRIOPEP-sSLP that contained Dylight 488-labeled GE31. TREM-1 staining was performed was performed using an Alexa 647-labeled rat anti-mouse TREM-1 antibody (Bio-Rad, Hercules, Calif.). ProLong Gold Antifade DAPI (4′,6′-diamidino-2-phenylindole) mounting medium was used to mount coverslips, and the slides were photographed using an Olympus BX60 fluorescence microscope. Confocal imaging was performed with a Leica TCS SP5 II laser scanning confocal microscope.

[5] = target: T1, TREM-1 (triggering receptor expressed …); assay: confocal immunofluorescence on macrophages, labelled peptide against TREM-1 staining; colocalisation only, no direct binding assay
Protocol: as §1, §2

For FC(F)(F)c1ccc(CNc2ccc(Cc3c[nH]c4ncc(Cl)cc34)cn2)cn1 [Pexidartinib], the tumor volume (TGCT patients; Phase 2 study) is given as “prolonged regression in tumor volume in most patients”, the liver toxicity (TGCT patients; Phase 3 study suspended) is given as “two reported cases of nonfatal, serious liver toxicity” and the partial response (TGCT patients; extension study, 23 patients, Tap et al. 2015) is given as 12 patients. The stable disease (TGCT patients; extension study, 23 patients) was 7 patients.

In the case of CSCC[C@H](NC(=O)[C@H](CCC(=O)O)NC(=O)[C@H](CCC(=O)O)NC(=O)[C@H](CCC(N)=O)NC(=O)[C@H](Cc1c[nH]c2ccccc12)NC(=O)[C@H](CCCCN)NC(=O)[C@H](CCCCN)NC(=O)[C@H](CCC(N)=O)NC(=O)[C@H](Cc1ccccc1)NC(=O)[C@H](CC(=O)O)NC(=O)[C@H](CC(=O)O)NC(=O)[C@H](CC(C)C)NC(=O)[C@H](Cc1ccc(O)cc1)NC(=O)[C@@H]1CCCN1C(=O)[C@H](Cc1ccccc1)NC(=O)[C@H](Cc1ccc(O)cc1)NC(=O)[C@H](CCCCN)NC(=O)[C@H](CC(C)C)NC(=O)[C@@H](NC(=O)[C@@H]1CCCN1C(=O)[C@@H](NC(=O)[C@H](CCCCN)NC(=O)[C@H](Cc1c[nH]c2ccccc12)NC(=O)[C@@H](N)CCSC)[C@@H](C)O)[C@@H](C)O)C(=O)N[C@@H](CCC(=O)O)C(=O)N[C@@H](CC(C)C)C(=O)N[C@@H](Cc1ccc(O)cc1)C(=O)N[C@@H](CCCNC(=N)N)C(=O)N[C@@H](CCC(N)=O)C(=O)N[C@@H](CCCCN)C(=O)N[C@H](C(=O)N[C@@H](CCC(=O)O)C(=O)O)C(C)C [M-VE32] (H-MWKTPTLKYFPYLDDFQKKWQEEMELYRQKVE-OH), the “CIA severity; bone and cartilage damage” value [1] is reported as “ameliorates CIA and protects against bone and cartilage damage”, the “tolerability in arthritic mice (body weight changes)” value ([2]; day 24 to day 38) is reported as “well-tolerated by arthritic mice” and the “arthritis (clinical arthritis score)” value ([2]; treatment days 24-38) is reported as “ameliorate the disease”.

For “GLLSGSLVF [mGF9-G, control murine GF9-G peptide, reference compound]”, the “tumor growth (and survival), standalone treatment” value [3] is listed as “do not affect tumor growth and survival”.

In the case of Cc1ccc(NC(=O)c2ccc(CN3CCN(C)CC3)cc2)cc1Nc1nccc(-c2cccnc2)n1 [Imatinib], the symptomatic improvement (PVNS patients; 16 of 22 patients assessable for symptoms) is listed as 73%, the “overall response rate per RECIST” value (PVNS patients; 27 evaluable patients, Cassier et al. 2012) is listed as 19% and the stable disease (PVNS patients; Twenty of 27 patients) is listed as 74%.

For GLLSKSLVF [mGF9, murine GF9 peptide], the “tumor growth and survival, combined with anti-PD-L1 antibody” value ([3]; 25 mg/kg i.p. daily) is given as “synergistically inhibits tumor growth and improves survival”.

With “PTX-GFLSKSLVFPLGEEMRDRARAHVDALRTHLA ({PTX}-GFLSKSLVFPLGEEMRDRARAHVDALRTHLA; reading uncertain; also: printed as PTX-GFLSKSLVFPLGEEMRDRARAHVDALRTHLA) [PTX-TREM-1/TRIOPEP]” the “anticancer activity (tumor inhibition, survival rate) as compared to PTX” value (human cancer xenografts) was “anticipated to have a significantly higher anticancer activity” and the “tolerability in cancer mice as compared to PTX” value (human cancer xenografts) was “anticipated to be substantially better tolerated by cancer mice”.

B1: TREM-1 inhibitory peptide GF9 (GFLSKSLVF, human TREM-1 213-221) (peptide)
peptide: GFLSKSLVF
modifications: not fully specified
notes: also called TREM-1 modulatory peptide GF9
B1: binds [4].

B2: TREM-1-related trifunctional peptide (TREM-1/TRIOPEP) GE31, methionine sulfoxidized (peptide)
peptide: GFLSKSLVFPYLDDFQKKWQEE[Met(O)]ELYRQKVE
modifications: not fully specified; printed as GFLSKSLVFPYLDDFQKKWQEEM(O)ELYRQKVE; also: delivered in spherical synthetic lipopeptide particles (TREM-1/TRIOPEP-sSLP)
notes: In the cytokine assays it was used as an equimolar mixture with GA31; also called TREM-1 modulatory peptide GE31
B2: binds [5].
